The text below walks through data of publication PMC13223435, “Synthesis and Antiproliferative Activity against Melanoma Cells of New Heterocyclic Hybrids Based on Pyridine and Pyrimidine Scaffolds” (Current Medicinal Chemistry, 2025).

Structures are written as SMILES.

Assay [1] addresses T1, tubulin (Sus scrofa, UniProt P02550+P02554).
T1 construct: purchased Cytoskeleton, Denver, CO, USA
The assay is described as follows: Cell free tubulin polymerization assay (fluorescence-based). Type of assay: biochemical. On the procedure: The tubulin polymerization process was evaluated using a tubulin (>99% pure) and fluorescence-based tubulin polymerization kit (Cytoskeleton, Denver, CO, USA). The effects of compounds 16b and 29 (at final concentrations of 1, 10, 50, 100 µM) on tubulin polymerization were evaluated in cell-free conditions. Paclitaxel (PTX) and vinblastine (VBL) (3 µM) were used as references, and DMSO (0.2%) was used as the vehicle control. This assay tracks the process of tubulin polymerization through an increase in fluorescence resulting from the addition of a fluorescence reporter to microtubules as polymerization occurs. After incubating the tested compounds at 37°C for 1 minute, the icy tubulin reaction mixture (2 mg/mL tubulin, 1.0 mM GTP, 15% glycerol in buffer containing 80 mM PIPES, 2.0 mM MgCl2, 0.5 mM EGTA, pH 6.9, and 10 µM fluorescent reporter) was added to the samples, which were then mixed and monitored using a spectrophotometric microplate reader (Infinite 200 Pro, Tecan) at 1-minute intervals for 90 minutes at 37°C (excitation: 360 nm, emission: 450 nm). The software installed on the plate reader was used to compute the maximum slope (Vmax) of the growth phase, measured in RFU/min, as outlined in the manufacturer's instructions. Each polymerization curve's Vmax was then standardized against the control curve's Vmax. The IC50 values were determined using an online tool (AAT Bioquest, Inc., Quest Graph™ IC50 Calculator ((v.1). Retrieved from https://www.aatbio.com/tools/IC50-calculator-v1, accessed on: 2024, May 6).

The subject of assay [2] is A375 cells. The assay is described as follows: Live-cell imaging (time-lapse microscopy). Type of assay: cell-based. The settings on record: 48 h. On the procedure:
For live-cell imaging, A375 cells were seeded into 96-well plates at a density of 2×10^3 cells per well and allowed to grow for 24 h before imaging. Next, the cell culture medium was carefully removed, and new medium containing 16b (at 2 µM and 10 µM) and 29 (at 5 µM and 10 µM) was added and the cell culture plate was placed in the imaging chamber of Agilent BioTek Lionheart FX automated microscope (Agilent Technologies, Inc., Santa Clara, CA, USA) equipped with a Plan Fluorite 20x/0.75 objective (Olympus, Nishi-Shinjuki, Tokyo, Japan), and a FLIR Blackfly BFLY-U3-23S6M camera (Teledyne FLIR, Wilsonville, OR, USA). The temperature in the imaging chamber was set to 37°C and CO2 level to 5%. The bright-field images were acquired every 5 minutes for 48 hours.

In assay [3] the test system is human dermal fibroblasts (HDF). The assay is described as follows: WST-1 assay on non-tumor cells (selectivity). The format is cell-based. An excerpt:
The A375 malignant melanoma cell line (ECACC 88113005, Salisbury, UK) was procured from the European Collection of Authenticated Cell Cultures (ECACC). The primary culture of human dermal fibroblasts (HDF) was derived from skin according to the protocol approved by the Ethical Committee of Pomeranian Medical University in Szczecin (KB-0012/02/18). The detailed protocol of fibroblast isolation, authentication, and cell culture conditions was previously described. Both cell lines were cultivated in a humidified incubator under conditions of 5% CO2 and a temperature of 37°C, using Dulbecco’s modified Eagle’s medium (DMEM) with 4500 mg/L glucose (Sigma-Aldrich Merck Group, St. Louis, MO, USA) enriched with 10% heat-inactivated fetal bovine serum (FBS, EURx, Gdańsk, Poland), 2 mM L-glutamine (Sigma-Aldrich Merck Group, St. Louis, MO, USA), and penicillin-streptomycin solution (Sigma-Aldrich Merck Group, St. Louis, MO, USA). Regular assessments for the presence of mycoplasma were conducted using the MycoAlert® Mycoplasma Detection Kit (Lonza, Rockland, ME, USA).
The evaluation of the antiproliferative activity of the compounds was performed using the Cell Proliferation Reagent WST-1 assay (Roche, Germany). This assay relies on the reduction of tetrazolium salt to formazan, with the final amount of formazan proportional to the number of viable cells. In our study, A375 cells (2×10^3) and HDF (3×10^3) were initially seeded into 96-well plates and cultured in a humidified atmosphere of 5% CO2 at 37°C. 24 hours later, the culture medium was replaced with a medium containing the tested compounds for a 48-hour incubation period at specified final concentrations. […] For control purposes, cells without the tested compounds, which contained only the vehicle (DMSO), were used. Additionally, a blank sample consisting of tested compounds in a medium (without cells) was included. After the 48-hour incubation period, the WST-1 reagent was introduced and allowed to incubate with the cells for 30 minutes. The absorbance was subsequently measured at 450 nm with background correction at 620 nm using a microplate reader (Infinite 200 Pro, Tecan, Männedorf, Switzerland). Cell viability was calculated according to the following formula: [(Atest–Ablank)/ (Acontrol − Ablank)] × 100%. These measurements were conducted in triplicate for at least three independent experiments.
For that purpose, non-tumor HDF cells were used and the concentrations of tested compounds were increased to 200 µM (0.4% DMSO) and 500 µM (1% DMSO). Appropriate controls were prepared for higher concentrations of DMSO.
Background: Tetrazolium assays rely on reduction of a dye to a coloured formazan, in cell work by metabolically active cells.

Assay [4] deals with A375 cells. Description: Cell cycle analysis (PI staining, Muse). The format is cell-based. The settings on record: 5 h. On the procedure:
For cell cycle analysis, A375 cells were initially plated in 6-well plates at a density of 1×10^5 cells per well and allowed to culture for 24 hours. Following this incubation period, the culture medium was replaced with fresh medium containing 16b and 29 at final concentrations of 1, 5, and 10 µM, after which the cells were incubated for an additional 5 hours. For control purposes, cells cultured in a medium containing 0.2% DMSO without treatment were utilized. The experimental procedure involved several steps: initially, the cells were rinsed with PBS, and then collected via trypsinization. The resulting cell pellet underwent another PBS wash before being fixed with 70% cold ethanol (Chempur, Piekary Śląskie, Polska) at -20°C for at least 3 hours. Before analysis, the ethanol-fixed cells were centrifuged, washed again with PBS, and then treated with Muse Cell Cycle Reagent (Luminex Corporation, Austin, TX, USA), which includes propidium iodide (PI) and RNAse. This staining process was carried out for 30 minutes at room temperature in the absence of light. The assay relies on PI-based staining of DNA content to differentiate and quantify the percentage of cells in the G0/G1, S, and G2/M phases of the cell cycle. The analysis was performed using the Muse Cell Analyzer (Luminex Corporation, Austin, TX, USA). The obtained findings were derived from a minimum of three independent experiments.

T1 sequence (P02554 whole entry): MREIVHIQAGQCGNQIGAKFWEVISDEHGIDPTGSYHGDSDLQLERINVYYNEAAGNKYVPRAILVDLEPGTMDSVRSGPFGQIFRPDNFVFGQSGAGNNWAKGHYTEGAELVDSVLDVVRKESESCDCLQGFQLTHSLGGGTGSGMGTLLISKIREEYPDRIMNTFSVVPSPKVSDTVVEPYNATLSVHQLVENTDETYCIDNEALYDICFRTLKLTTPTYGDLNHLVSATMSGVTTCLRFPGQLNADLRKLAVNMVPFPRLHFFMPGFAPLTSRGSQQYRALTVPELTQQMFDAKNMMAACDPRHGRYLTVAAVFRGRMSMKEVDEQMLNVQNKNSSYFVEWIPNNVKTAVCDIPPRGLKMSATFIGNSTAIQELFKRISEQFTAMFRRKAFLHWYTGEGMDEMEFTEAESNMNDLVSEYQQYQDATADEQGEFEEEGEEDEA
T1 sequence (P02550 whole entry): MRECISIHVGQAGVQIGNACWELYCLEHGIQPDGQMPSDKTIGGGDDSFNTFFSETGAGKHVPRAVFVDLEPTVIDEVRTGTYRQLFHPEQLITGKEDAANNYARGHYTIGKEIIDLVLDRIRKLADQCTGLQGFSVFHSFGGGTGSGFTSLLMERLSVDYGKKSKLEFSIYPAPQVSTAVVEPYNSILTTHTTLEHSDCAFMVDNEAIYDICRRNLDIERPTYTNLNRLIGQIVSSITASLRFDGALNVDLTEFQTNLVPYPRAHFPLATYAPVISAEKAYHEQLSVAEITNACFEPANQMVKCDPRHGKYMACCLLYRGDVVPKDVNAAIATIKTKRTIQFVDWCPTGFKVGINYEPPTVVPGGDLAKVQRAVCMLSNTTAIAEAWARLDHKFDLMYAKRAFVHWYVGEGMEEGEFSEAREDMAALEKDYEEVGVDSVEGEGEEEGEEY

For `COc1cc(Cn2cc(-c3cccs3)ccc2=S)cc(OC)c1OC` [Compound 16b], the “effect on tubulin polymerization” value in assay [1] (100 µM) is “acted as tubulin polymerization inhibitors”. For the same compound, the concentration for half-maximal inhibition (IC50) is 37.3 ± 10.9 µM in assay [1] (Vmax normalised to control, read-out: tubulin polymerization inhibition IC50) and 120 ± 8.42 µM in assay [3] (Fibroblast, 48 hours of treatment, normal human dermal fibroblasts). Besides, the “time-lapse observation of A375 cells” value is “cells also divided, but less effectively, divisions lasted longer, and finally, the confluence was lower than that in the control well” in assay [2] (2 µM); “arrested mitosis resulted in mitotic slippage, leading to apoptosis or formation of binucleated cells” in assay [2] (10 µM). In assay [3] (IC50 normal cells (HDF)/IC50 cancer cell (A375)), the “Selectivity index (SI)” value stood at 65.08. The “percentage of A375 cells in the G2/M phase” value in assay [4] (1 µM) is 33.79 ± 0.46%; in assay [4] (5 µM), 39.33 ± 5.27%; in assay [4] (10 µM) it was 44.52 ± 4.00%.

As a reminder, the IC50 is the concentration that inhibits the measured activity by half.
